Experiments:
[1] = molecular target: T1, Human neuropeptide Y (NPY-Y1) (Homo sapiens, UniProt P25929); assay: Radioligand binding, human neuropeptide Y NPY-Y1 membranes, FlashPlate, [125I]-PYY; conditions: compound at 10 μM, [125I]-PYY; for A9: inhibition of radioligand binding: human NPY-Y1 membranes
T1 construct: purchased Perkin Elmer Biosignal
T1 sequence (P25929 1-384): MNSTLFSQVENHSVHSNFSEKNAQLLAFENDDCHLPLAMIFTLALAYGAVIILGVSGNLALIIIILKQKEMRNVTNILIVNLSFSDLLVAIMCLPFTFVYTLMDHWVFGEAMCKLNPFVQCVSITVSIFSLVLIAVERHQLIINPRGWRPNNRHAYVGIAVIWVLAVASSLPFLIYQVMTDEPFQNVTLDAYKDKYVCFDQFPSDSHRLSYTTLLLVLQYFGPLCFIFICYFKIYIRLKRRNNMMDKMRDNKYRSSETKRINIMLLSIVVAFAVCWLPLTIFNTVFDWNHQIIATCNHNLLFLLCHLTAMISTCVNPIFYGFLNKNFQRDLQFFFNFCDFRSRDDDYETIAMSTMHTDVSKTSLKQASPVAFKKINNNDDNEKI
How it was run: (§1)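 Cloned human receptor membranes were coated onto FlashPlate wells and incubated with radioligand and compound (added from a 0.5 mM DMSO daughter plate) for 1 hour at room temperature in the dark. Scintillation counting gave percent inhibition, with DMSO defining total and reference ligand defining non-specific binding.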

[2] = molecular target: T2, Human melanocortin (MC5) (Homo sapiens, UniProt P33032); assay: Radioligand binding, human melanocortin MC5 membranes, FlashPlate, [125I]-NDP-αMSH; conditions: compound at 10 μM, [125I]-NDP-αMSH; for A5: inhibition of radioligand binding: human MC5 membranes
T2 construct: purchased Perkin Elmer Biosignal
T2 sequence (P33032 whole entry): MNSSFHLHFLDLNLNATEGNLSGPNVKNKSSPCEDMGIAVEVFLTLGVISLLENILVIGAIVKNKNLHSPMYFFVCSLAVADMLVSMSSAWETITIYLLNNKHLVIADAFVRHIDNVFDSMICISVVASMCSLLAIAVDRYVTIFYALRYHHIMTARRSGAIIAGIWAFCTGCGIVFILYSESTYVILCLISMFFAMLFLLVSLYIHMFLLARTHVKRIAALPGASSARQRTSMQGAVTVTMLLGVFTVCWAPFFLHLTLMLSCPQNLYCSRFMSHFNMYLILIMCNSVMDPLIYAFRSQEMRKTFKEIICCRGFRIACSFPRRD
How it was run: as §1

[3] = molecular target: T3, Human κ-Opioid (KOP) (Homo sapiens, UniProt P41145); assay: Radioligand binding, human κ-opioid (KOP) membranes, filtration, [3H]-Diprenorphine; conditions: compound at 10 μM, [3H]-Diprenorphine; for A2: inhibition of radioligand binding: human KOP membranes
T3 construct: purchased Perkin Elmer Biosignal
T3 sequence (P41145 whole entry): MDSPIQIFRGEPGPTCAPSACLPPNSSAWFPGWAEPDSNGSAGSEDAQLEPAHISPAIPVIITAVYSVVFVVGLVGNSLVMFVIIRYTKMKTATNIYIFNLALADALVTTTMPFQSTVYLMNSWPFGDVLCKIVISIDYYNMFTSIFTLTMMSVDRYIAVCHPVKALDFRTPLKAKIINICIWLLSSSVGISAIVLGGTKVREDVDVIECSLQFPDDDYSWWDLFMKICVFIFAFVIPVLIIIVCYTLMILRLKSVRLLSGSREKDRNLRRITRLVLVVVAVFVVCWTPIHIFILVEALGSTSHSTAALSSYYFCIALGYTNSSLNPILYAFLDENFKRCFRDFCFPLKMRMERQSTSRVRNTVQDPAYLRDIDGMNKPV
How it was run: (§2)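 Percent inhibition of radioligand binding measured on recombinant human membranes: NK1 with [125I]-Substance P, KOP with [3H]-Diprenorphine. Incubation 1 h at room temperature, then harvest onto 0.3% PEI-soaked filters, cold Tris-HCl pH 7.4 washes and scintillation counting; non-specific binding from reference ligand wells.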

[4] = molecular target: T4, Human opioid (ORL1) (Homo sapiens, UniProt P41146); assay: Radioligand binding, human opioid ORL1 membranes, FlashPlate, [125I]-Nociceptin; conditions: compound at 10 μM, [125I]-Nociceptin; for A10: inhibition of radioligand binding: human ORL1 membranes, 10 µM
T4 construct: purchased Perkin Elmer Biosignal
T4 sequence (P41146 whole entry): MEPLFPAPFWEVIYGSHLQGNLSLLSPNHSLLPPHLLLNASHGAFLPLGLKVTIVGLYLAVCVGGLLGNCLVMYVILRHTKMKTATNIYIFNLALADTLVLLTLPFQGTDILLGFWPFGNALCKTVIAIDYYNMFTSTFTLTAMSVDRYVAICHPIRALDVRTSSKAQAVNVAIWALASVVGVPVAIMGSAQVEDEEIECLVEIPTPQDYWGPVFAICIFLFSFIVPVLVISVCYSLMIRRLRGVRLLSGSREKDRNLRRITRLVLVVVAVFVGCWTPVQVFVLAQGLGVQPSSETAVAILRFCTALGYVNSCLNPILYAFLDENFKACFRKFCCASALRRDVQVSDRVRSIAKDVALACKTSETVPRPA
How it was run: as §1

[5] = molecular target: T5, Human Melanocortin (MC4) (Homo sapiens, UniProt P32245); assay: Radioligand binding, human melanocortin MC4 membranes, FlashPlate, [125I]-NDP-αMSH; conditions: compound at 10 μM, [125I]-NDP-αMSH; for A4: inhibition of radioligand binding: human MC4 membranes, 10 µM
T5 construct: purchased Perkin Elmer Biosignal
T5 sequence (P32245 whole entry): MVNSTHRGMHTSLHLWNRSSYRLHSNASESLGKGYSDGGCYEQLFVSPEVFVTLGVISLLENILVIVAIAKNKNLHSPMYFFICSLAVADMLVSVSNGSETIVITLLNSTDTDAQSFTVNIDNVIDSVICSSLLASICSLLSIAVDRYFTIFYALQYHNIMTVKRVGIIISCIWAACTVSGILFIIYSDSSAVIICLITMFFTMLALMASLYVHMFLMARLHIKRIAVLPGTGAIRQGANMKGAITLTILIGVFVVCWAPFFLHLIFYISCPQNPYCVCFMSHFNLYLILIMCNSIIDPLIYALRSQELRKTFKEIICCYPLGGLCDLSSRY
How it was run: as §1

[6] = molecular target: T6, Human melanin-concentrating hormone (MCH1) (Homo sapiens, UniProt Q99705); assay: Radioligand binding, human melanin-concentrating hormone MCH1 membranes, FlashPlate, [125I]-S36057; conditions: compound at 10 μM; for A6: inhibition of radioligand binding, human melanin-concentrating hormone (MCH1): [125I]-S36057; for A6: inhibition of radioligand binding: [125I]-S36057, human MCH1 membranes
T6 construct: purchased Perkin Elmer Biosignal
T6 sequence (Q99705 whole entry): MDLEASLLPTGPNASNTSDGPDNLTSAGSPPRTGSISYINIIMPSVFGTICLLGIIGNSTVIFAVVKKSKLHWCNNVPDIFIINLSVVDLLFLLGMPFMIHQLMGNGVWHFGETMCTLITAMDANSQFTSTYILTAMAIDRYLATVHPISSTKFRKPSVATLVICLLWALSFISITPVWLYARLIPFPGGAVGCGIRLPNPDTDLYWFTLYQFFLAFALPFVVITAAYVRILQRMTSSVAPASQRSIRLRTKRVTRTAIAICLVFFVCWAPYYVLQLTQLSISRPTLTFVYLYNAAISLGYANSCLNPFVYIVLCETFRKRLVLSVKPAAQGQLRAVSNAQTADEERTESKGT
How it was run: as §1

[7] = molecular target: T7, Human μ-opioid (MOP) (Homo sapiens, UniProt P35372); assay: Radioligand binding, human μ-opioid (MOP) membranes, FlashPlate, [3H]-Naloxone; conditions: compound at 10 μM, [3H]-Naloxone; for A7: inhibition of radioligand binding: human MOP membranes
T7 construct: purchased Perkin Elmer Biosignal
T7 sequence (P35372 whole entry): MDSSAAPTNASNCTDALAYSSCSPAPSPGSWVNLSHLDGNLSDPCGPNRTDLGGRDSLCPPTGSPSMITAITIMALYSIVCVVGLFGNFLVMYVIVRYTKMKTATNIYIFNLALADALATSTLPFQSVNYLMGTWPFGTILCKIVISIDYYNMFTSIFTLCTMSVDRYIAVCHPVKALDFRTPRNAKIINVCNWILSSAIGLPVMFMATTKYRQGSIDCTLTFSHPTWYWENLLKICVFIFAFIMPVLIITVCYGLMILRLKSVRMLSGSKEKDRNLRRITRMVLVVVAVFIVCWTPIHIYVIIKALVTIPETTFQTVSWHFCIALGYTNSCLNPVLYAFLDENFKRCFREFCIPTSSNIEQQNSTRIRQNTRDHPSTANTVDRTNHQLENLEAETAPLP
How it was run: as §1

[8] = molecular target: T8, Human Melanocortin (MC3) (Homo sapiens, UniProt P41968); assay: Radioligand binding, human melanocortin MC3 membranes, FlashPlate, [125I]-NDP-αMSH; conditions: compound at 10 μM, [125I]-NDP-αMSH; for A3: inhibition of radioligand binding: human MC3 membranes, 10 µM
T8 construct: purchased Perkin Elmer Biosignal
T8 sequence (P41968 whole entry): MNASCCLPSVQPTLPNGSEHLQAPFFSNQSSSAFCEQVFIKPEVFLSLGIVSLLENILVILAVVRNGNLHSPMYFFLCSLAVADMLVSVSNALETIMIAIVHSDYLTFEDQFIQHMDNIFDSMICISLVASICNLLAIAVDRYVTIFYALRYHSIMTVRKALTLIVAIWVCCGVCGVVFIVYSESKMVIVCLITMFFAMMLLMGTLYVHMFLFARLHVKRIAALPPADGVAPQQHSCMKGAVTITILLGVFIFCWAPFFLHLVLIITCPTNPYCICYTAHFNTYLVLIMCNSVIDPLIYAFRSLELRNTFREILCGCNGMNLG
How it was run: as §1

[9] = molecular target: T9, Human neurokinin (NK1) (Homo sapiens, UniProt P25103); assay: Radioligand binding, human neurokinin NK1 membranes, filtration, [125I]-Substance P; conditions: compound at 10 μM, [125I]-Substance P; for A8: inhibition of radioligand binding: human NK1 membranes
T9 construct: purchased Perkin Elmer Biosignal
T9 sequence (P25103 whole entry): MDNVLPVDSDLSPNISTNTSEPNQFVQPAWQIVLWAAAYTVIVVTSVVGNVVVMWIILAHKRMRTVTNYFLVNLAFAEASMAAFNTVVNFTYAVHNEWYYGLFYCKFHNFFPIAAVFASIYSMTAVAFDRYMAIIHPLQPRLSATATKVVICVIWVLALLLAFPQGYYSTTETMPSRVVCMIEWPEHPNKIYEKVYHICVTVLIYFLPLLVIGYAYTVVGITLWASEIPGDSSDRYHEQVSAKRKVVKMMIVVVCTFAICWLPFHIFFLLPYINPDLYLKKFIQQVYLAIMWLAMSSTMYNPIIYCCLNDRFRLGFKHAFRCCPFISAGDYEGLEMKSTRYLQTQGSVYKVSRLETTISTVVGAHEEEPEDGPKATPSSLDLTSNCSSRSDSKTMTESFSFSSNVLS
How it was run: as §2

[10] = molecular target: T10, Mouse urotensin (mUR2) (Mus musculus, UniProt Q8VIH9); assay: Radioligand binding, mouse urotensin mUR2 membranes, FlashPlate, [125I]-Urotensin II; conditions: compound at 10 μM, [125I]-Urotensin II; for A11: inhibition of radioligand binding: mouse mUR2 membranes
T10 construct: purchased Perkin Elmer Biosignal
T10 sequence (Q8VIH9 1-385): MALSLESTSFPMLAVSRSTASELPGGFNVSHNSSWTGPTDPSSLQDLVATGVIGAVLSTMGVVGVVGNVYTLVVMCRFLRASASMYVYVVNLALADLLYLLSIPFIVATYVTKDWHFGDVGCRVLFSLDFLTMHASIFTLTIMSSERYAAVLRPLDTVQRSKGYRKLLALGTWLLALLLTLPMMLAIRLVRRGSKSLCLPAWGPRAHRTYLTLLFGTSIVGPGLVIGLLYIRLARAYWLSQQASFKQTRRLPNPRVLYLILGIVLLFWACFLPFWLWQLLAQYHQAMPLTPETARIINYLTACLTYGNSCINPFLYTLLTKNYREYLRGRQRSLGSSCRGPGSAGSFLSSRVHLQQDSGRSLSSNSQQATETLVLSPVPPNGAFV
How it was run: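 Cloned mouse urotensin (mUR2) receptor membranes from Perkin Elmer Biosignal were immobilized in FlashPlate microplates using a proprietary coating. Each well got 19.5 μl buffer, then 0.5 μl of DMSO, reference ligand, or compound. Adding 5 μl of [125I]-Urotensin II, diluted to 5× final concentration in binding buffer, started binding. Plates were sealed with TopSeal-A and incubated 1 hour at room temperature in the dark. Wells were counted for 30 seconds each on a TopCount after a 60-second delay, and percentage inhibition was calculated.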

[11] = molecular target: T11, Human δ-opioid (DOP) (Homo sapiens, UniProt P41143); assay: Radioligand binding, human δ-opioid (DOP) membranes, FlashPlate, [3H]-Bremazocine; conditions: compound at 10 μM, [3H]-Bremazocine; for A1: inhibition of radioligand binding: human DOP membranes
T11 construct: purchased Perkin Elmer Biosignal
T11 sequence (P41143 whole entry): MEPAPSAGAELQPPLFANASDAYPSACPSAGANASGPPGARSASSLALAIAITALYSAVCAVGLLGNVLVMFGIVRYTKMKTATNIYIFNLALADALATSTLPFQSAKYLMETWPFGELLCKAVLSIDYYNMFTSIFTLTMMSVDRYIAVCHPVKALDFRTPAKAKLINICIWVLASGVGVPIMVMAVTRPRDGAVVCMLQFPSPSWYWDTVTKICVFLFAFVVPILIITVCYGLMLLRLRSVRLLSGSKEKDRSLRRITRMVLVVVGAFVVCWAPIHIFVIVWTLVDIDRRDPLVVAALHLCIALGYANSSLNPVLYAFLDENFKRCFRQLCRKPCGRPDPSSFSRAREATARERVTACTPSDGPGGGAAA
How it was run: as §1

Row | Compound | A9: inhibition of radioligand binding, human neuropeptide Y (NPY-Y1) [1] | A5: inhibition of radioligand binding, human melanocortin (MC5) [2] | A2: inhibition of radioligand binding, human κ-opioid (KOP) [3] | A10: inhibition of radioligand binding, human opioid (ORL1) [4] | A4: inhibition of radioligand binding, human melanocortin (MC4) [5] | A6: inhibition of radioligand binding, human melanin-concentrating hormone (MCH1) [6] | A7: inhibition of radioligand binding, human μ-opioid (MOP) [7] | A3: inhibition of radioligand binding, human melanocortin (MC3) [8] | A8: inhibition of radioligand binding, human neurokinin (NK1) [9] | A11: inhibition of radioligand binding, mouse urotensin (mUR2) [10] | A1: inhibition of radioligand binding, human δ-opioid (DOP) [11] | A9: inhibition of radioligand binding [1] | A5: inhibition of radioligand binding [2] | A2: inhibition of radioligand binding [3] | A10: inhibition of radioligand binding [4] | A4: inhibition of radioligand binding [5] | A3: inhibition of radioligand binding [8] | A8: inhibition of radioligand binding [9] | A11: inhibition of radioligand binding [10] | A1: inhibition of radioligand binding [11] | further results
1 | CO[C@H]1[C@H](O)[C@@H](COCc2ccc3ccccc3c2)OC(OCc2ccc(Cl)cc2)[C@@H]1NC(=O)C1CCCN1 (stereo partly shown) [compound 352] | − (“−” indicates less than 50% inhibition at 10 μM) | − (“−” indicates less than 50% inhibition at 10 μM) | − (“−” indicates less than 50% inhibition at 10 μM) | − (“−” indicates less than 50% inhibition at 10 μM) | − (“−” indicates less than 50% inhibition at 10 μM) | − (“−” indicates less than 50% inhibition at 10 μM) | − (“−” indicates less than 50% inhibition at 10 μM) | − (“−” indicates less than 50% inhibition at 10 μM) | + (“+” indicates greater than 50% inhibition at 10 μM) | − (“−” indicates less than 50% inhibition at 10 μM) | − (“−” indicates less than 50% inhibition at 10 μM) | – | – | – | – | – | – | – | – | – | –
2 | NCCCC(=O)NC1C(OCc2ccc3ccccc3c2)OC(COCc2ccc3ccccc3c2)C(O)C1OCc1ccc2ccccc2c1 (stereo not shown) [compound 393] | – | – | – | – | – | – | – | – | – | – | – | − (“−” indicates less than 50% inhibition at 10 μM) | + (“+” indicates greater than 50% inhibition at 10 μM) | − (“−” indicates less than 50% inhibition at 10 μM) | − (“−” indicates less than 50% inhibition at 10 μM) | + (“+” indicates greater than 50% inhibition at 10 μM) | + (“+” indicates greater than 50% inhibition at 10 μM) | + (“+” indicates greater than 50% inhibition at 10 μM) | − (“−” indicates less than 50% inhibition at 10 μM) | − (“−” indicates less than 50% inhibition at 10 μM) | A6: inhibition of radioligand binding ([6]; 10 µM): − (“−” indicates less than 50% inhibition at 10 μM); A7: inhibition of radioligand binding ([7]; 10 µM): − (“−” indicates less than 50% inhibition at 10 μM)
3 | CSC1OC(COCc2cccc(N)c2)C(O)C(OCc2ccc(Cl)cc2)C1NC(=O)Cc1ccccc1 (stereo not shown) [compound 333] | − (“−” indicates less than 50% inhibition at 10 μM) | − (“−” indicates less than 50% inhibition at 10 μM) | − (“−” indicates less than 50% inhibition at 10 μM) | − (“−” indicates less than 50% inhibition at 10 μM) | − (“−” indicates less than 50% inhibition at 10 μM) | − (“−” indicates less than 50% inhibition at 10 μM) | − (“−” indicates less than 50% inhibition at 10 μM) | − (“−” indicates less than 50% inhibition at 10 μM) | + (“+” indicates greater than 50% inhibition at 10 μM) | − (“−” indicates less than 50% inhibition at 10 μM) | − (“−” indicates less than 50% inhibition at 10 μM) | – | – | – | – | – | – | – | – | – | –
4 | CSC1OC(COCc2ccc(Cl)cc2)C(O)C(OCc2ccc3ccccc3c2)C1NC(=O)CNC(=N)N (stereo not shown) [compound 307] | − (“−” indicates less than 50% inhibition at 10 μM) | + (“+” indicates greater than 50% inhibition at 10 μM) | − (“−” indicates less than 50% inhibition at 10 μM) | − (“−” indicates less than 50% inhibition at 10 μM) | + (“+” indicates greater than 50% inhibition at 10 μM) | − (“−” indicates less than 50% inhibition at 10 μM) | − (“−” indicates less than 50% inhibition at 10 μM) | + (“+” indicates greater than 50% inhibition at 10 μM) | + (“+” indicates greater than 50% inhibition at 10 μM) | − (“−” indicates less than 50% inhibition at 10 μM) | − (“−” indicates less than 50% inhibition at 10 μM) | – | – | – | – | – | – | – | – | – | –
5 | NCCCC(=O)NC1C(OCc2ccc3ccccc3c2)OC(COCc2ccc(Cl)cc2)C(O)C1OCc1ccccc1 (single isomer, unassigned) [compound 470] | – | – | – | – | – | – | – | – | – | – | – | − (“−” indicates less than 50% inhibition at 10 μM) | + (“+” indicates greater than 50% inhibition at 10 μM) | − (“−” indicates less than 50% inhibition at 10 μM) | + (“+” indicates greater than 50% inhibition at 10 μM) | − (“−” indicates less than 50% inhibition at 10 μM) | − (“−” indicates less than 50% inhibition at 10 μM) | + (“+” indicates greater than 50% inhibition at 10 μM) | − (“−” indicates less than 50% inhibition at 10 μM) | − (“−” indicates less than 50% inhibition at 10 μM) | A6: inhibition of radioligand binding [6]: − (“−” indicates less than 50% inhibition at 10 μM); A7: inhibition of radioligand binding [7]: − (“−” indicates less than 50% inhibition at 10 μM)

— US20080009418A1, “Selective Inhibitors” (Alchemia LTD., priority 2004, published 2008)
